The species named for data set [1] is Rattus norvegicus. Kind of data set: Uptake of [GD] in bone 1 hr post injection with 0.05 of the compound. The data set is classed as functional, Bone element.
The species entered for data set [2] is Rattus norvegicus. Kind of data set: Uptake of [GD] in bone 1 hr post injection with 0.10 of the compound. Format: functional, Bone element.
The species entered for data set [3] is Rattus norvegicus. Briefly: Uptake of [GD] in bone 1 h post injection with 0.01 of the compound. Format: functional, Bone element.
Data set [4] in a line: Ratio of uptake of [GD] in bone 1 hr post injection with 0.10 to that of muscle. The data set is classed as functional.
A short description of data set [5]: Ratio of uptake of [GD] in bone 1 hr post injection with 0.10 to that of blood. Format: functional.
A short description of data set [6]: Uptake of [GD] in bone 1 hr post injection with 0.01 to that of muscle. The data set is classed as functional, Muscle tissue.
The nature of data set [7]: Ratio of uptake of [GD] in bone 1 hr post injection with 0.05 to that of blood. Format: functional.
A short description of data set [8]: Ratio of uptake of [GD] in bone 1 hr post injection with 0.01 to that of blood. The data set is classed as functional.
Data set [9] in a line: Ratio of uptake of [GD] in bone 1 hr post injection with 0.05 to that of muscle. The data set is classed as functional.
The nature of data set [10]: Ration of Uptake of [GD] in bone 1 hr post injection with NCA GD dose to that of muscle. The data set is classed as functional.
Data set [11] can be described thus: Ratio of uptake of [GD] in bone 1 hr post injection with 0.005 to that of blood. The data set is classed as functional.
For data set [12], the species on record is Rattus norvegicus. Briefly: Biodistribution in rat kidney in the presence of NCAGd/0.01 M lig. Format: ADME, organism-based. The conditions noted are these: in vivo.
The species entered for data set [13] is Rattus norvegicus. Briefly: Biodistribution in rat heart in the presence of NCAGd/0.01 M lig. Format: ADME, organism-based. The conditions noted are these: in vivo.
For data set [14], the species on record is Rattus norvegicus. Kind of data set: Uptake of [GD] in bone 1 hr post injection with 0.002 of the compound. The data set is classed as functional, Bone element.
The nature of data set [15]: Ratio of uptake of [GD] in bone 1 hr post injection with 0.0005 to that of blood. The data set is classed as functional.
The species entered for data set [16] is Rattus norvegicus. Briefly: Biodistribution in rat bone in the presence of NCAGd/0.01 M lig. Format: ADME, organism-based, Bone element. The conditions noted are these: in vivo.
The nature of data set [17]: Ratio of uptake of [GD] in bone 1 hr post injection with NCA GD dose to that of blood. The data set is classed as functional.
For data set [18], the species on record is Rattus norvegicus. Briefly: Uptake of [GD] in bone 1 hr post injection with NCA GD dose. Format: functional, Bone element.
For data set [19], the species on record is Rattus norvegicus. Briefly: Biodistribution in rat muscle in the presence of NCAGd/0.01 M lig. The data set is classed as ADME, organism-based, Muscle tissue. The conditions noted are these: in vivo.
Data set [20] in a line: Ratio of uptake of [GD] in bone 1 hr post injection with 0.0005 to that of muscle. The data set is classed as functional.
For data set [21], the species on record is Rattus norvegicus. Kind of data set: Biodistribution in rat liver by in the presence of NCAGd/0.01 M lig. The data set is classed as ADME, organism-based. The note with it: in vivo.
For data set [22], the species on record is Rattus norvegicus. Kind of data set: Uptake of [GD] in bone 1 hr post injection with 0.0005 of the compound. The data set is classed as functional, Bone element.
Data set [23] is filed under the species Rattus norvegicus. Briefly: Biodistribution in rat spleen in the presence of NCAGd/0.01 M lig. The data set is classed as ADME, organism-based. The conditions noted are these: in vivo.
For data set [24], the species on record is Rattus norvegicus. Kind of data set: Uptake of [GD] in bone 1 hr post injection with 0.005 of the compound. The data set is classed as functional, Bone element.
Data set [25] is filed under the species Rattus norvegicus. Briefly: Biodistribution in rat blood in the presence of NCAGd/0.01 M lig. The data set is classed as ADME, organism-based. The note with it: in vivo.
Data set [26] can be described thus: Ratio of uptake of [GD] in bone 1 hr post injection with 0.002 to that of muscle. The data set is classed as functional.
Data set [27] is described as follows: Ratio of uptake of [GD] in bone 1 hr post injection with 0.002 to that of blood. The data set is classed as functional.
A short description of data set [28]: Ratio of uptake of [GD] in bone 1 hr post injection with 0.005 to that of muscle. Format: functional.
Data set [29] in a line: Ratio of uptake of [GD] in bone 1 hr post injection with 0.01 (N) to that of blood.
The nature of data set [30]: Ratio of uptake of [GD] in bone 1 hr post injection with 0.01 to that of muscle. Format: functional.
Data set [31] can be described thus: Ratio of uptake of [GD] in bone 1 hr post injection with 0.01 (N) to that of muscle.
The species named for data set [32] is Rattus norvegicus. Kind of data set: Uptake of [GD] in bone 1 hr post injection with 0.01 (N) of the compound.

The results in this text go back to ChEMBL document CHEMBL1124314, “Development of phosphonate derivatives of gadolinium chelates for NMR imaging of calcified soft tissues” (J Med Chem, 1989).

As to `O=C(O)CN(CCN(CC(=O)O)CC(=O)O)CCN(CC(=O)O)CC(=O)NCCCP(=O)(O)OP(=O)(O)O`, the ID is listed as 17.6% in the data set listed under Rattus norvegicus [1], 13.7% in the data set filed under Rattus norvegicus [2] and 22.9% in the data set listed under Rattus norvegicus [3]. Moreover, the Ratio in [4] is reported as 2.76; in data set [5] it was 8.56; in [6] it was 5.39; in [7], 6.42; in [8], 2.12; in data set [9], 3.38.

For `CC(O)C(C)NCCNC(C)C(C)O` (stereo unspecified), the Ratio is 8.81% in data set [10]; 0.167% in data set [11]; 0.234% in data set [15]; 16.5% in data set [17]; 2.19% in data set [20]; 1.81% in data set [26]. For the same compound, the Ratio in data set [27] was 0.206%; in [28], 1.67%. The ID/organ in the data set filed under Rattus norvegicus [12] came to 2.87%; in the data set filed under Rattus norvegicus [13], 0.295%; in the data set filed under Rattus norvegicus [16] it was 51.4%; in the data set filed under Rattus norvegicus [19], 5.85%; in the data set listed under Rattus norvegicus [21], 28.5%; in the data set listed under Rattus norvegicus [23] it was 0.44%. Moreover, the ID/organ in the data set listed under Rattus norvegicus [25] is given as 3.12%. Moreover, the ID came out at 6.9% in the data set listed under Rattus norvegicus [14], 51.4% in the data set filed under Rattus norvegicus [18], 6.54% in the data set listed under Rattus norvegicus [22] and 5.07% in the data set filed under Rattus norvegicus [24].

In the case of `CC(CO)NCCNC(C)C(C)O` (stereo unspecified), the Ratio is given as 0.18% in data set [29], 1.22% in [30] and 1.55% in data set [31]. Also, the ID/organ is 2.75% in the data set filed under Rattus norvegicus [12]; 0.315% in the data set filed under Rattus norvegicus [13]; 59.6% in the data set filed under Rattus norvegicus [16]; 6.25% in the data set filed under Rattus norvegicus [19]; 21.5% in the data set filed under Rattus norvegicus [21]; 0.13% in the data set filed under Rattus norvegicus [23]. In addition, in the data set listed under Rattus norvegicus [25], the ID/organ is listed as 2.31%. Moreover, the ID in the data set filed under Rattus norvegicus [3] was 6.88%; in the data set listed under Rattus norvegicus [18], 59.6%; in the data set listed under Rattus norvegicus [32], 3.33%.
